Data as given in ChEMBL document CHEMBL4411344, “Synthesis and biological evaluation of new long-chain squaramides as anti-chagasic agents in the BALB/c mouse model” (Bioorg Med Chem, 2019).
Activity calls are given as the source filed them. No cut-off for these calls is given here.

How the values were obtained:
[1] = Toxicity in Balb/c mouse assessed as reduction in body mass at 20 mg/kg, po once daily for 5 consecutive days starting from day 75 post infection relative to control; assay type: organism-based; design: scale not given: the % may be the effect or the level left; details: in vivo
[2] = Hepatotoxicity in Balb/c mouse infected with Trypanosoma cruzi MHOM/Pe/2011/Arequipa DTU 5 trypomastigotes assessed as increase in alkaline phosphatase level at 20 mg/kg, po once daily for 5 consecutive days starting from day 10 post infection measured on day 16 post infection relative to control; assay type: toxicity, organism-based; details: in vivo
Trypanosoma cruzi [3] = assay: (§1) Antitrypanosomal activity against Trypanosoma cruzi MHOM/Pe/2011/Arequipa DTU 5 trypomastigotes infected in Balb/c mouse assessed as reduction in parasitaemia level at 20 mg/kg, po once daily for 5 consecutive days starting from day 10 post infection measured on day 23 post infection by Neubauer chamber method relative to control; assay type: functional; design: scale not given: the % may be the effect or the level left
[4] = Toxicity in Balb/c mouse assessed as reduction in body mass at 20 mg/kg, po once daily for 5 consecutive days starting from day 10 post infection relative to control; assay type: organism-based; design: scale not given: the % may be the effect or the level left; details: in vivo
Trypanosoma cruzi [5] = assay: (§2) Antitrypanosomal activity against Trypanosoma cruzi MHOM/Pe/2011/Arequipa DTU 5 trypomastigotes infected in Balb/c mouse assessed as reduction in parasitaemia reactivation at 20 mg/kg, po pretreated once daily for 5 consecutive days starting from day 10 post infection followed by cyclophosphamide-induced immunosuppression on day 100 post infection measured within 1 week post immunosuppression by Neubauer chamber method; assay type: functional; design: scale not given: the % may be the effect or the level left
Trypanosoma cruzi [6] = assay: as §2, with “from day 75 post infection” for “from day 10 post infection”; assay type: functional; design: scale not given: the % may be the effect or the level left
Trypanosoma cruzi [7] = assay: (§3) Antitrypanosomal activity against Trypanosoma cruzi MHOM/Pe/2011/Arequipa DTU 5 trypomastigotes infected in Balb/c mouse assessed as parasite-free muscle at 20 mg/kg, po pretreated once daily for 5 consecutive days starting from day 75 post infection followed by cyclophosphamide-induced immunosuppression on day 100 post infection measured on day 127 post infection by PCR method; assay type: functional
[8] = (§4) Hepatotoxicity in Balb/c mouse infected with Trypanosoma cruzi MHOM/Pe/2011/Arequipa DTU 5 trypomastigotes assessed as increase in total bilirubin level at 20 mg/kg, po once daily for 5 consecutive days starting from day 75 post infection measured on day 81 post infection relative to control; assay type: toxicity, organism-based; details: in vivo
Trypanosoma cruzi [9] = assay: as §3, with “heart” for “muscle”, “10” for “75”; assay type: functional
Trypanosoma cruzi [10] = assay: as §3, with “lungs” for “muscle”, “10” for “75”; assay type: functional
Trypanosoma cruzi [11] = assay: as §3, with “lungs” for “muscle”; assay type: functional
[12] = Nephrotoxicity in Balb/c mouse infected with Trypanosoma cruzi MHOM/Pe/2011/Arequipa DTU 5 trypomastigotes assessed as decrease in serum urea level at 20 mg/kg, po once daily for 5 consecutive days starting from day 10 post infection measured on day 16 post infection relative to control; assay type: toxicity, organism-based; details: in vivo
Trypanosoma cruzi [13] = assay: Antitrypanosomal activity against Trypanosoma cruzi MHOM/Pe/2011/Arequipa DTU 5 trypomastigotes infected in Balb/c mouse assessed as reduction in splenomegaly at 20 mg/kg, po once daily for 5 consecutive days starting from day 10 post infection measured on day 127 post infection relative to control; assay type: functional
Trypanosoma cruzi [14] = assay: Antitrypanosomal activity against Trypanosoma cruzi MHOM/Pe/2011/Arequipa DTU 5 trypomastigotes infected in Balb/c mouse assessed as reduction in splenomegaly at 20 mg/kg, po once daily for 5 consecutive days starting from day 75 post infection measured on day 127 post infection relative to control; assay type: functional
Trypanosoma cruzi [15] = assay: as §3, with “stomach” for “muscle”, “10” for “75”; assay type: functional
[16] = Nephrotoxicity in Balb/c mouse infected with Trypanosoma cruzi MHOM/Pe/2011/Arequipa DTU 5 trypomastigotes assessed as decrease in serum uric acid level at 20 mg/kg, po once daily for 5 consecutive days starting from day 75 post infection measured on day 127 post infection relative to control; assay type: toxicity, organism-based; details: in vivo
Trypanosoma cruzi [17] = assay: Antitrypanosomal activity against Trypanosoma cruzi MHOM/Pe/2011/Arequipa DTU 5 trypomastigotes infected in Balb/c mouse assessed as reduction in Ig-G level in serum at 20 mg/kg, po once daily for 5 consecutive days starting from day 10 post infection measured on day 16 post infection by ELISA; assay type: functional, organism-based
[18] = Toxicity in Balb/c mouse assessed as death at 20 mg/kg, po once daily for 5 consecutive days starting from day 10 post infection; assay type: organism-based; details: in vivo
Trypanosoma cruzi [19] = assay: as §1, with “measured every 2 to 3 days up to” for “measured on”, “day 50 post infection starting from day 7” for “day 23”, “method” for “method relative to control”; assay type: functional, organism-based
[20] = Selectivity index, ratio of IC50 for African green monkey Vero cells to IC50 for Trypanosoma cruzi MHOM/Pe/2011/Arequipa DTU 5 amastigotes infected in African green monkey Vero cells; assay type: toxicity; details: read-out: Ratio IC50
[21] = as §4, with “change” for “increase”, “10” for “75”, “127” for “81”, “by biochemical analysis (reference value: 0.21 mg/dl)” for “relative to control”; assay type: toxicity, organism-based; details: in vivo
[22] = target: Superoxide dismutase [Cu-Zn] (Homo sapiens, UniProt P00441); assay: Inhibition of human erythrocyte CuZn-SOD by UV-Visible spectrophotometric method
[23] = Nephrotoxicity in Balb/c mouse infected with Trypanosoma cruzi MHOM/Pe/2011/Arequipa DTU 5 trypomastigotes assessed as decrease in serum uric acid level at 20 mg/kg, po once daily for 5 consecutive days starting from day 75 post infection measured on day 81 post infection relative to control; assay type: toxicity, organism-based; details: in vivo
[24] = Selectivity index, ratio of IC50 for African green monkey Vero cells to IC50 for Trypanosoma cruzi IRHOD/CO/2008/SN3 DTU 1 trypomastigotes derived from infected Balb/c mouse; assay type: toxicity; details: read-out: Ratio IC50
[25] = Selectivity index, ratio of IC50 for African green monkey Vero cells to IC50 for Trypanosoma cruzi TINF/CH/1956/Tulahuen DTU 6 trypomastigotes derived from infected Balb/c mouse; assay type: toxicity; details: read-out: Ratio IC50
Trypanosoma cruzi [26] = assay: Trypanocidal activity against Trypanosoma cruzi MHOM/Pe/2011/Arequipa DTU 5 amastigotes infected in African green monkey Vero cells assessed as reduction in infected cells after 72 hrs by Giemsa-staining based assay; assay type: functional, organism-based; details: MHOM/Pe/2011/Arequipa DTU 5, Vero
[27] = Selectivity index, ratio of IC50 for African green monkey Vero cells to IC50 for Trypanosoma cruzi TINF/CH/1956/Tulahuen DTU 6 amastigotes infected in African green monkey Vero cells; assay type: toxicity; details: read-out: Ratio IC50
[28] = Selectivity index, ratio of IC50 for African green monkey Vero cells to IC50 for Trypanosoma cruzi IRHOD/CO/2008/SN3 DTU 1 epimastigotes; assay type: toxicity; details: read-out: Ratio IC50
[29] = Selectivity index, ratio of IC50 for African green monkey Vero cells to IC50 for Trypanosoma cruzi MHOM/Pe/2011/Arequipa DTU 5 trypomastigotes derived from infected Balb/c mouse; assay type: toxicity; details: read-out: Ratio IC50
[30] = Selectivity index, ratio of IC50 for African green monkey Vero cells to IC50 for Trypanosoma cruzi IRHOD/CO/2008/SN3 DTU 1 amastigotes infected in African green monkey Vero cells; assay type: toxicity; details: read-out: Ratio IC50

Superoxide dismutase [Cu-Zn], sequence (P00441 whole entry): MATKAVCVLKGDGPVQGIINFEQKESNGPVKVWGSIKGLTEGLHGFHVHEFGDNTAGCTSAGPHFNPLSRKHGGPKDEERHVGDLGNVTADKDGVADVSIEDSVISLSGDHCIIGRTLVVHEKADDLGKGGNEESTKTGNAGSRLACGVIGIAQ

| SMILES | Activity [1] | Activity [2] | Activity (Trypanosoma cruzi [3]) | Activity [4] | Activity (Trypanosoma cruzi [5]) | Activity (Trypanosoma cruzi [6]) | Activity (Trypanosoma cruzi [7]) | Activity [8] | Activity (Trypanosoma cruzi [9]) | Activity (Trypanosoma cruzi [10]) | Activity (Trypanosoma cruzi [11]) | Activity [12] | Activity (Trypanosoma cruzi [13]) | Activity (Trypanosoma cruzi [14]) | Activity (Trypanosoma cruzi [15]) | Activity [16] | Activity (Trypanosoma cruzi [17]) | Activity [18] | Activity (Trypanosoma cruzi [19]) | selectivity ratio [20] | also measured |
| --- | --- | --- | --- | --- | --- | --- | --- | --- | --- | --- | --- | --- | --- | --- | --- | --- | --- | --- | --- | --- | --- |
| O=C(Cn1ccnc1[N+](=O)[O-])NCc1ccccc1 [BENZNIDAZOLE] | > 10% | 20 to 30 U/L | 70% | > 10% | 75% | 51% | 55% | 30% | 33% | 33% | 55% | 20 to 30 mg/dL | Active | Active | 33% | 10 to 20 mg/dL | Active | Non-Toxic |  |  |  |
| CCCCCCCCCCCCCCCCNc1c(N(C)CCCN(C)C)c(=O)c1=O | > 10% |  | 80% | > 10% | 26% | 21% | 78% | 20% | 67% | 67% | 78% | 10 to 20 mg/dL | 66% | 55% | 67% |  | Active | Non-Toxic | Active | 3090 | Activity [21]: 0.21 mg/dL; IC50 [22]: > 100 µM; Activity [23]: 20 to 30 mg/dL; selectivity ratio [24]: 126; selectivity ratio [25]: 144; IC50 (Trypanosoma cruzi [26]): 5.6 µM; selectivity ratio [27]: 106; selectivity ratio [28]: 42.5; selectivity ratio [29]: 154; selectivity ratio [30]: 35.9 |
| CCCCCCNc1c(N(C)CCCN(C)C)c(=O)c1=O | > 10% | 10 to 20 U/L |  | > 10% | inactive | inactive | inactive | 10% | inactive | inactive | inactive | 10 to 20 mg/dL | Active | Active | inactive | 10 to 20 mg/dL | inactive | Non-Toxic | inactive | 52.1 | Activity [21]: 0.21 mg/dL; IC50 [22]: > 100 µM; Activity [23]: 10 to 20 mg/dL; selectivity ratio [24]: 57; selectivity ratio [25]: 52.2; IC50 (Trypanosoma cruzi [26]): 60.5 µM; selectivity ratio [27]: 23.5; selectivity ratio [28]: 63; selectivity ratio [29]: 139; selectivity ratio [30]: 18 |
